Test results from publication PMC8131363 (Scientific Reports, 2021).
Like-named read-outs stand apart in the source and are kept apart here.

Tests used:
cCaSR [1] = target: T1, cCaSR (Felis catus, UniProt C7FF08); experiment: cCaSR PAM luminescence assay, double injection with 0.5 mM CaCl2, HEK293/T-REx/natClytin-cCaSR; conditions: for EC50: read-out: EC50 PAM, positive allosteric modulator, presence of Ca2+
T1 sequence (C7FF08 1-1081): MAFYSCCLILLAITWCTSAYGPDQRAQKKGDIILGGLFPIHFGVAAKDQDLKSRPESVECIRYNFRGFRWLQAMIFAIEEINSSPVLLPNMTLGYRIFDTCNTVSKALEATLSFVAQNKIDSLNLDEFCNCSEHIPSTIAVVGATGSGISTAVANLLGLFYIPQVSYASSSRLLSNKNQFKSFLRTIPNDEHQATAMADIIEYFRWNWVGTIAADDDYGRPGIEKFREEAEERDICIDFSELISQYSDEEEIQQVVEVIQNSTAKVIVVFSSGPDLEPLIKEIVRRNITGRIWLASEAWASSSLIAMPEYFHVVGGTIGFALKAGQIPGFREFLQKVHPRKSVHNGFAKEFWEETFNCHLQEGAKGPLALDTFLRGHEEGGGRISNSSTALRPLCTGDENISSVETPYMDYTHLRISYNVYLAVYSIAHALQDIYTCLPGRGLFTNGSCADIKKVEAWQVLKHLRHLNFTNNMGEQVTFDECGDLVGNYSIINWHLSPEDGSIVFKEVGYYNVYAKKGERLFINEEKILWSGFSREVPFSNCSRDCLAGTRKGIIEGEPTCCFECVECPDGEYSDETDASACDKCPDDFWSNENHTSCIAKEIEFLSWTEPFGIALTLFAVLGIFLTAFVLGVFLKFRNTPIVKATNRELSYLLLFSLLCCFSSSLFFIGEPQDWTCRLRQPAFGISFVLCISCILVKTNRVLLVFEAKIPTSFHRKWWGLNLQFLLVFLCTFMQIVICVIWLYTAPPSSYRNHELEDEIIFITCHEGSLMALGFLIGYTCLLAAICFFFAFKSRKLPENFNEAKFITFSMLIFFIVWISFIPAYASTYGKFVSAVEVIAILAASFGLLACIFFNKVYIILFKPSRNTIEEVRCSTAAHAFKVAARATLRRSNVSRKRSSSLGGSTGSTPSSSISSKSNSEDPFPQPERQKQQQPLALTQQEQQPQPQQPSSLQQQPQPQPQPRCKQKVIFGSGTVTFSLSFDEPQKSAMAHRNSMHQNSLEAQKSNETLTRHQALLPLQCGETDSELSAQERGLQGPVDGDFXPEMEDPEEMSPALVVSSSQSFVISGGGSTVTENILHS

cCaSR [2] = target: T1, cCaSR; experiment: cell-based; conditions: agonist assay
cCaSR [3] = target: T1, cCaSR
[4] = Supplementary Table I, PAM assay, dash = no activity
[5] = EC50 (M), stable inducible cCaSR line, > 0.01 M = maximal response not reached
[6] = EC50 Ago (M), Supplementary Table I, > 0.01 M = maximal response not reached
[7] = cCaSR activity, stable inducible cCaSR line, at least three wells
[8] = Supplementary Table I, agonist assay, dash = no activity
[9] = agonist assay, stable inducible cCaSR line, > 0.01 M = maximal response not reached
[10] = read-out: EC50 Ago, Supplementary Table I, agonist assay, > 0.01 M = maximal response not reached
[11] = read-out: cCaSR activity, agonist assay, stable inducible cCaSR line, at least three wells

Row | EC50 PAM (M) (cCaSR [1]; [4]) | EC50 Ago (M) (cCaSR [3]; [8]) | Compound | further results
1 | - |  | N[C@@H](CCC(=O)N[C@@H](Cc1ccc(O)cc1)C(=O)O)C(=O)O [γ-Glu-Tyr] | EC50 (cCaSR [2]; [5]): 0.00388 M; EC50 (cCaSR [2]; [6]): 0.00388 M; EC50 (cCaSR [2]; [7]): 0.001 to 0.01 M
2 | - |  | CSC[C@H](NC(=O)CC[C@H](N)C(=O)O)C(=O)NCC(=O)O [S-Methylglutathione] | EC50 (cCaSR [2]; [5]): 0.00442 M; EC50 (cCaSR [2]; [6]): 0.00442 M; EC50 (cCaSR [2]; [7]): 0.001 to 0.01 M
3 | - |  | CC(C)C[C@H](NC(=O)CC[C@H](N)C(=O)O)C(=O)O [γ-Glu-Leu] | EC50 (cCaSR [2]; [7]): > 0.01 M
4 | - |  | N[C@@H](CCC(=O)N[C@@H](Cc1c[nH]c2ccccc12)C(=O)O)C(=O)O [γ-Glu-Trp] | EC50 (cCaSR [2]; [7]): > 0.01 M
5 | - |  | N[C@@H](CCC(=O)N[C@@H](Cc1ccccc1)C(=O)O)C(=O)O [γ-Glu-Phe] | EC50 (cCaSR [2]; [5]): 0.00232 M; EC50 (cCaSR [2]; [7]): 0.001 to 0.01 M
6 | - |  | CC[C@H](NC(=O)CC[C@H](N)C(=O)O)C(=O)O | EC50 (cCaSR [2]; [7]): > 0.01 M
7 | - |  | C[C@H](NC(=O)C[C@H](N)C(=O)O)C(=O)O [β-Asp-Ala] | EC50 (cCaSR [2]; [7]): > 0.01 M
8 | - | - | CN(C)C(N)=NCCC[C@H](N)C(=O)O.Cl.Cl [NG,NG-Dimethylarginine dihydrochloride] | 
9 | - |  | O=S(=O)([O-])C(F)(F)F.O=S(=O)([O-])C(F)(F)F.O=S(=O)([O-])C(F)(F)F.[Pr+3] [Pr^3+, Praseodymium(III) trifluoromethanesulfonate] | EC50 (cCaSR [3]; [9]): 398 µM; EC50 (cCaSR [3]; [10]): 398 µM; EC50 (cCaSR [3]; [11]): < 1000 µM
10 | - | - | CC(C)C[C@H](N)C(=O)O [L-Leucine] | 
11 | - |  | N[C@H](CCC(=O)N[C@@H](Cc1c[nH]c2ccccc12)C(=O)O)C(=O)O [γ-D-Glu-Trp] | EC50 (cCaSR [2]; [5]): 0.0042 M
12 | - | - | NC[C@H](N)C(=O)O [S-2,3-diaminopropanoic acid] | 
13 | - |  | N[C@@H](CCC(=O)N[C@@H](CSCc1c[nH]c2ccccc12)C(=O)NCC(=O)O)C(=O)O [3-Glutathionyl-S-methylindole] | EC50 (cCaSR [2]; [5]): 0.00374 M; EC50 (cCaSR [2]; [6]): 0.00375 M; EC50 (cCaSR [2]; [7]): 0.001 to 0.01 M
14 | - |  | NC(=O)CC[C@H](NC(=O)CC[C@H](N)C(=O)O)C(=O)O [γ-Glu-Gln] | EC50 (cCaSR [2]; [7]): > 0.01 M
15 | - |  | NC(CC(C(=O)O)C(=O)O)C(=O)O (racemic) [γ-Carboxy-DL-glutamic acid] | EC50 (cCaSR [2]; [7]): > 0.01 M
16 | - |  | N[C@@H](C[C@H](O)C(=O)O)C(=O)O [2S,4S-g-Hydroxy-L-glutamic acid] | EC50 (cCaSR [2]; [7]): > 0.01 M
17 | - | - | NC(CCCC(N)C(=O)O)C(=O)O (stereo not drawn) [2,6-Diaminopimelic acid] | 
18 | - | - | CC[C@H](C)[C@H](N)C(=O)O [L-Isoleucine] | 
19 | - | - | N[C@@H](CSSC[C@H](N)C(=O)O)C(=O)O [Cystine (disufide)] | 
20 | - | - | NC(CCCCCCCCCC(=O)O)C(=O)O (stereo not drawn) [2-aminododecanedioic acid] | 
21 | - | - | OC[C@H]1O[C@H](O[C@]2(CCl)O[C@H](CCl)[C@@H](O)[C@@H]2O)[C@H](O)[C@@H](O)[C@H]1Cl [Sucralose] | 
22 | - | - | C[C@@H](N[C@H]1CCCC[C@@H]1NC(=O)c1ccc(Cl)cc1)c1cccc2ccccc12 [Calhex 231, reference compound] | 

Row | EC50 PAM (M) (cCaSR [1]; [4]) | EC50 Ago (M) (cCaSR [3]; [8]) | Compound | further results
23 |  |  | N=C(N)NCCC[C@H](N)C(=O)O [L-Arginine] | EC50 Ago (M) (cCaSR [3]): -; EC50 PAM (M) (cCaSR [1]): -
24 | - | - | N[C@@H](CCC(=O)NCC(=O)NCC(=O)O)C(=O)O [γ-Glu-Gly-Gly] | 
25 |  | - | CC(NCC1Cc2ccccc2O1)c1ccc2ccccc2n1 (stereo not drawn) [Enamine Screening - Z1437387381] | EC50 (cCaSR [1]; Supplementary Table I): 9.01 µM
26 | - | - | CC(C)[C@H](N)C(=O)O [L-Valine] | 
27 | - | - | N[C@@H](CS)C(=O)O [L-Cysteine] | 
28 | - | - | C[C@@H](O)[C@H](N)C(=O)O [L-Threonine] | 
29 | - | - | O=C(O)[C@@H]1CCCN1 [L-Proline] | 
30 | - | - | Poly-L-histidine | 
31 | - | - | NC(=O)CC[C@H](N)C(=O)O [L-Glutamine] | 
32 | - | - | N[C@@H](CCO)C(=O)O [L-Homoserine] | 
33 | - | - | NCCCCCN [Cadaverine] | 
34 |  | - | COc1cc(C(O)(c2nc3ccccc3s2)C(F)(F)F)c(OC)cc1N (stereo not drawn) [Enamine Screening - Z317045236] | EC50 (cCaSR [1]; Supplementary Table I): 2.42 µM
35 | - | - | COc1ccc(C2C(CNC(C)c3ccncc3)CCN2C)cc1 (stereo not drawn) [Enamine Screening - Z1563602968] | 
36 |  | - | COC(=O)C(NC1CCc2c(F)cccc21)c1cccc(C#N)c1 (stereo not drawn) [Enamine Screening - Z1362199910] | EC50 (cCaSR [1]; Supplementary Table I): 58.9 µM
37 | - | - | CCOC(=O)CNC(=O)[C@H](CS)NC(=O)CC[C@H](N)C(=O)O [γ-Glu-Cys-Gly-Oet] | 
38 |  | - | CC(NC1CCc2c(F)cc(Br)cc21)c1ccncc1 (stereo not drawn) [Enamine Screening - Z1436888168] | EC50 (cCaSR [1]; Supplementary Table I): 45.7 µM
39 | - |  | CC(=O)[O-].CC(=O)[O-].CC(=O)[O-].O.[Tb+3] [Tb^3+, Terbium(III) acetate hydrate] | EC50 (cCaSR [3]; [9]): 175 µM; EC50 (cCaSR [3]; [10]): 175 µM; EC50 (cCaSR [3]; [11]): < 1000 µM
40 | - | - | CC(C)C1NC(C(=O)O)Cc2c1[nH]c1ccccc21 (stereo not drawn) [1-isopropyl-2,3,4,9-tetrahydro-1H-pyrido[3,4-b]indole-3-carboxylic acid] | 
41 | - | - | NCCS(=O)(=O)O [Taurine] | 
42 | - | - | COC(=O)CC[C@H](N)C(=O)O [L-Glutamic Acid 5-Methyl Ester] | 
43 | - | - | N[C@@H](Cc1ccc(O)cc1)C(=O)O [L-Tyrosine] | 
44 | - | - | O.O.O.O.O.O.O.O.O.O.O=P([O-])([O-])OP(=O)([O-])[O-].[Na+].[Na+].[Na+].[Na+] [Sodium pyrophosphate tetrabasic decahydrate] | 

Row | Compound | EC50 PAM (M) (cCaSR [1]; [4]) | EC50 Ago (M) (cCaSR [3]; [8]) | further results
45 | O=C(O)[C@@H]1C[C@@H](O)CN1 [Hydroxyproline] | - | - | 
46 | COC(=O)[C@@H](N)CCCNC(=N)N[N+](=O)[O-].Cl [Nω-Nitro-L-arginine methyl ester hydrochloride] | - | - | 
47 | NCCCC[C@@H](N)C(=O)O [D-Lysine] | - | - | 
48 | CN[C@H]1C[C@@H](N)[C@H](O)[C@@H](O[C@@H]2O[C@H](CO)[C@H](O)[C@@H]3OC4(O[C@H]23)O[C@H]([C@@H](N)CO)[C@H](O)[C@H](O)[C@H]4O)[C@@H]1O (stereo partly drawn) [Hygromycin B, reference compound] | - | - | 
49 | Cc1ccc(C2(CCNC(C)c3ccc(Cl)cc3)CCOC(C)(C)C2)cc1 (stereo not drawn) [Vitas M Labs Express Pick - STK530456] |  | - | EC50 (cCaSR [1]; Supplementary Table I): 26.1 µM
50 | N[C@@H](CO)C(=O)O [L-Serine] | - | - | 
